In BindingDB's records for PubMed 38746901 (Smith, Gambrell & Russell) one finds IC50 data, which are given here for six compounds.

SMILES strings stand for the structures. Where only a bound is given, the exact number is not on record here.

A short description of the test: Inhibition of human recombinant GST tagged NIK incubated for 2 hrs in presence of ATP by alpha screen assay. (In general: Bead proximity is the source of the signal in Alpha formats.)
As usually defined, the IC50 is the point on the concentration scale where inhibition reaches its midpoint. Take `CN1CC(F)(F)[C@@](O)(c2cc(-c3cccc(-c4ccnc(Nc5cnn(C)c5)n4)n3)no2)C1=O`: the IC50 was under 0.05 µM.
The figure for `Cc1nocc1Nc1nccc(-c2cccc(-c3cc([C@]4(O)CCN(C)C4=O)on3)n2)n1` is under 0.05 µM; for `CN1CC[C@@](O)(c2cn(-c3cccc(-c4ccnc(Nc5ccn(C)n5)n4)n3)nn2)C1=O` it is under 0.05 µM; for `CN1CC[C@@](O)(c2nnc(-c3cccc(-c4ccnc(Nc5cnn(C)c5Cl)n4)n3)s2)C1=O` it is under 0.05 µM.
The figure for `CN1CC[C@@](O)(c2cc(-c3cccc(-c4ccnc(Nc5cnn(C)c5C5CC5)n4)n3)no2)C1=O` is under 0.05 µM.
The value for `Cc1nscc1Nc1nccc(-c2cccc(-c3cc([C@]4(O)CCN(C)C4=O)on3)n2)n1` was under 0.05 µM.
